Reference: the NIST ThermoML archive (doi:10.1021/je060339m)
Numbers after ± are expanded uncertainties.

Conditions: Liquid

CCOC(C)=O [ethyl acetate]
mass density (343.15 K, 15000 kPa): 857.3 ± 4.9 kg/m3
mass density (343.15 K, 20000 kPa): 863 ± 5.5 kg/m3
mass density (343.15 K, 25000 kPa): 868.5 ± 6.1 kg/m3
mass density (343.15 K, 30000 kPa): 875.1 ± 6.7 kg/m3
mass density (343.15 K, 35000 kPa): 881.6 ± 7.3 kg/m3
mass density (348.15 K, 100 kPa): 829.4 ± 3.1 kg/m3
mass density (348.15 K, 1000 kPa): 830.5 ± 3.3 kg/m3
mass density (348.15 K, 2000 kPa): 832.3 ± 3.4 kg/m3
mass density (348.15 K, 3000 kPa): 833.8 ± 3.5 kg/m3
mass density (348.15 K, 3800 kPa): 835 ± 3.6 kg/m3
mass density (348.15 K, 5000 kPa): 836.8 ± 3.7 kg/m3
mass density (348.15 K, 10000 kPa): 845.5 ± 4.3 kg/m3
mass density (348.15 K, 15000 kPa): 851.8 ± 4.9 kg/m3
mass density (348.15 K, 20000 kPa): 857.7 ± 5.5 kg/m3
mass density (348.15 K, 25000 kPa): 863.5 ± 6.1 kg/m3
mass density (348.15 K, 30000 kPa): 870.2 ± 6.7 kg/m3
mass density (348.15 K, 35000 kPa): 877 ± 7.3 kg/m3
mass density (353.15 K, 1000 kPa): 824.3 ± 3.3 kg/m3
mass density (353.15 K, 2000 kPa): 826 ± 3.4 kg/m3
mass density (353.15 K, 3000 kPa): 827.5 ± 3.5 kg/m3
mass density (353.15 K, 3800 kPa): 828.8 ± 3.6 kg/m3
mass density (353.15 K, 5000 kPa): 830.6 ± 3.7 kg/m3
mass density (353.15 K, 10000 kPa): 837.7 ± 4.3 kg/m3
mass density (353.15 K, 15000 kPa): 844.3 ± 4.9 kg/m3
mass density (353.15 K, 20000 kPa): 850.4 ± 5.5 kg/m3
mass density (353.15 K, 25000 kPa): 856.1 ± 6.1 kg/m3
mass density (353.15 K, 30000 kPa): 862.7 ± 6.7 kg/m3
mass density (353.15 K, 35000 kPa): 869.6 ± 7.3 kg/m3
mass density (358.15 K, 1000 kPa): 818.4 ± 3.3 kg/m3
mass density (358.15 K, 2000 kPa): 820 ± 3.4 kg/m3
mass density (358.15 K, 3000 kPa): 821.6 ± 3.5 kg/m3
mass density (358.15 K, 3800 kPa): 822.8 ± 3.6 kg/m3
mass density (358.15 K, 5000 kPa): 824.7 ± 3.7 kg/m3
mass density (358.15 K, 10000 kPa): 832.1 ± 4.3 kg/m3
mass density (358.15 K, 15000 kPa): 838.9 ± 4.9 kg/m3
mass density (358.15 K, 20000 kPa): 845.2 ± 5.5 kg/m3
mass density (358.15 K, 25000 kPa): 851 ± 6.1 kg/m3
mass density (358.15 K, 30000 kPa): 857.6 ± 6.7 kg/m3
mass density (358.15 K, 35000 kPa): 864.7 ± 7.3 kg/m3
mass density (363.15 K, 1000 kPa): 811.8 ± 3.3 kg/m3
mass density (363.15 K, 2000 kPa): 813.5 ± 3.4 kg/m3
mass density (363.15 K, 3000 kPa): 815.3 ± 3.5 kg/m3
mass density (363.15 K, 3800 kPa): 816.6 ± 3.6 kg/m3
mass density (363.15 K, 5000 kPa): 818.5 ± 3.7 kg/m3
mass density (363.15 K, 10000 kPa): 826.3 ± 4.3 kg/m3
mass density (363.15 K, 15000 kPa): 833.3 ± 4.9 kg/m3
mass density (363.15 K, 20000 kPa): 839.7 ± 5.5 kg/m3
mass density (363.15 K, 25000 kPa): 845.8 ± 6.1 kg/m3
mass density (363.15 K, 30000 kPa): 852.9 ± 6.7 kg/m3
mass density (363.15 K, 35000 kPa): 860.2 ± 7.3 kg/m3
mass density (368.15 K, 1000 kPa): 804.9 ± 3.3 kg/m3
mass density (368.15 K, 2000 kPa): 806.8 ± 3.4 kg/m3
mass density (368.15 K, 3000 kPa): 808.6 ± 3.5 kg/m3
mass density (368.15 K, 3800 kPa): 810 ± 3.6 kg/m3
mass density (368.15 K, 5000 kPa): 812.1 ± 3.8 kg/m3
mass density (368.15 K, 10000 kPa): 820.2 ± 4.4 kg/m3
mass density (368.15 K, 15000 kPa): 827.5 ± 5 kg/m3
mass density (368.15 K, 20000 kPa): 834.3 ± 5.6 kg/m3
mass density (368.15 K, 25000 kPa): 840.6 ± 6.2 kg/m3
mass density (368.15 K, 30000 kPa): 848 ± 6.8 kg/m3
mass density (368.15 K, 35000 kPa): 855.5 ± 7.4 kg/m3
mass density (373.15 K, 1000 kPa): 798.5 ± 3.3 kg/m3
mass density (373.15 K, 2000 kPa): 800.4 ± 3.4 kg/m3
mass density (373.15 K, 3000 kPa): 802.4 ± 3.5 kg/m3
mass density (373.15 K, 3800 kPa): 803.8 ± 3.6 kg/m3
mass density (373.15 K, 5000 kPa): 806 ± 3.8 kg/m3
mass density (373.15 K, 10000 kPa): 814.4 ± 4.4 kg/m3
mass density (373.15 K, 15000 kPa): 822 ± 5 kg/m3
mass density (373.15 K, 20000 kPa): 829 ± 5.6 kg/m3
mass density (373.15 K, 25000 kPa): 835.5 ± 6.2 kg/m3
mass density (373.15 K, 30000 kPa): 843 ± 6.8 kg/m3
mass density (373.15 K, 35000 kPa): 850.6 ± 7.4 kg/m3
mass density (378.15 K, 1000 kPa): 791.8 ± 3.3 kg/m3
mass density (378.15 K, 2000 kPa): 793.8 ± 3.4 kg/m3
mass density (378.15 K, 3000 kPa): 795.8 ± 3.5 kg/m3
mass density (378.15 K, 3800 kPa): 797.3 ± 3.6 kg/m3
mass density (378.15 K, 5000 kPa): 799.6 ± 3.8 kg/m3
mass density (378.15 K, 10000 kPa): 808.5 ± 4.4 kg/m3
mass density (378.15 K, 15000 kPa): 816.5 ± 5 kg/m3
mass density (378.15 K, 20000 kPa): 823.7 ± 5.6 kg/m3
mass density (378.15 K, 25000 kPa): 830.5 ± 6.2 kg/m3
mass density (378.15 K, 30000 kPa): 838.4 ± 6.8 kg/m3
mass density (378.15 K, 35000 kPa): 846.3 ± 7.4 kg/m3
mass density (383.15 K, 1000 kPa): 784.8 ± 3.3 kg/m3
mass density (383.15 K, 2000 kPa): 787.1 ± 3.4 kg/m3
mass density (383.15 K, 3000 kPa): 789.1 ± 3.5 kg/m3
mass density (383.15 K, 3800 kPa): 790.8 ± 3.6 kg/m3
mass density (383.15 K, 5000 kPa): 793.2 ± 3.8 kg/m3
mass density (383.15 K, 10000 kPa): 802.4 ± 4.4 kg/m3
mass density (383.15 K, 15000 kPa): 810.7 ± 5 kg/m3
mass density (383.15 K, 20000 kPa): 818.2 ± 5.6 kg/m3
mass density (383.15 K, 25000 kPa): 825.3 ± 6.2 kg/m3
mass density (383.15 K, 30000 kPa): 833.5 ± 6.8 kg/m3
mass density (383.15 K, 35000 kPa): 841.6 ± 7.4 kg/m3
mass density (388.15 K, 1000 kPa): 778.2 ± 3.3 kg/m3
mass density (388.15 K, 2000 kPa): 780.5 ± 3.4 kg/m3
mass density (388.15 K, 3000 kPa): 782.7 ± 3.6 kg/m3
mass density (388.15 K, 3800 kPa): 784.4 ± 3.7 kg/m3
mass density (388.15 K, 5000 kPa): 786.9 ± 3.8 kg/m3
mass density (388.15 K, 10000 kPa): 796.4 ± 4.4 kg/m3
mass density (388.15 K, 15000 kPa): 805.1 ± 5 kg/m3
mass density (388.15 K, 20000 kPa): 813 ± 5.6 kg/m3
mass density (388.15 K, 25000 kPa): 820.3 ± 6.2 kg/m3
mass density (388.15 K, 30000 kPa): 828.8 ± 6.8 kg/m3
mass density (388.15 K, 35000 kPa): 837.2 ± 7.4 kg/m3
mass density (393.15 K, 1000 kPa): 771 ± 3.3 kg/m3
mass density (393.15 K, 2000 kPa): 773.5 ± 3.5 kg/m3
mass density (393.15 K, 3000 kPa): 775.9 ± 3.6 kg/m3
mass density (393.15 K, 3800 kPa): 777.7 ± 3.7 kg/m3
mass density (393.15 K, 5000 kPa): 780.4 ± 3.8 kg/m3
mass density (393.15 K, 10000 kPa): 790.5 ± 4.4 kg/m3
mass density (393.15 K, 15000 kPa): 799.4 ± 5 kg/m3
mass density (393.15 K, 20000 kPa): 807.6 ± 5.6 kg/m3
mass density (393.15 K, 25000 kPa): 815.2 ± 6.2 kg/m3
mass density (393.15 K, 30000 kPa): 823.9 ± 6.8 kg/m3
mass density (393.15 K, 35000 kPa): 832.4 ± 7.4 kg/m3
